Source: US9688689B2, “Compounds and compositions for inducing chondrogenesis” (Novartis AG, priority 2014, dated 2017)

The compounds below were run on Primary articular chondrocytes from normal bovine knees (assay: NO Release Assay in Bovine Chondrocytes (inhibition of cytokine induced NO release, Greiss reagent)). Details: Bos taurus, Chondrocyte; 20 ng/ml TNFα and 10 ng/ml human oncostatin M, 48 hours; read-out: NO Inh. IC50.
Format: cell-based
Method: The compounds of the present invention were evaluated in two functional assays to assess their chondrogenesis activities (Type II Collagen Expression) and chondrocyte protective activities (NO release assay).
The assay was described in Johnson, K., et al., (2012) Science 336, 717-721. Chondrocytes release NO during OA pathogenesis. This assay measures the inhibition of nitric oxide release by the treated compound (an indicator of chondro-protection) Primary articular chondrocytes from normal bovine knees (Animal Technologies, Tyler, Tex.) were isolated after dissection and collagenase digestion (Worthington Biochemical) of the tibial plateau and femoral condyle articular cartilage. The cells were initially plated at 80-90% confluency after isolation. Primary chondrocytes were cultured in high-glucose Dulbecco's modified Eagle's medium (DMEM) supplemented with 10% fetal bovine serum (FBS), 1% L-glutamine, 100 units/ml of penicillin, and 50 μg/ml of streptomycin (Life Technologies, Carlsbad, Calif.) and maintained at 37° C. in the presence of 5% CO2 for 7 days prior to initiation of each experiment. During the 7-day culture period, the cells adhered and established a chondrocyte-like appearance that was maintained throughout the experimental period. Functional studies on chondrocytes were performed in high-glucose DMEM with no FBS unless indicated otherwise.
After one week of culture, 8500 cells were plated per well in Greiner 384 well white clear bottom plates in growth media. Following 24 hours of culture, the media was removed and replaced with serum free DMEM containing 20 ng/ml TNFα and 10 ng/ml human oncostatin M (inflammatory mediators). […] 20 μl of the supernatant was mixed with 20 μl of the Greiss reagent (Promega # G2930) and quantitated at 540 nm. The Greiss reagent part A (1% Sulfanilamide in 5% phosphoric acid) was mixed at a 1:1 ration with Greiss reagent part B (0.1% N-1-napthylethylenediamine dihydrochloride in water) immediately prior to added to the culture supernatant.
In the case of `O=C(Nc1ccc(Cl)c(Cl)c1)[C@@H]1[C@H](c2ccncc2)[C@@H]2CC[C@H]1O2` [Compound 135], the IC50 is reported as greater than 33 µM.
With `O=C(Nc1ccc(Cl)c(Cl)c1)C1=C(c2cccc(C(F)(F)F)n2)[C@@H]2CC[C@H]1O2` [Compound 136] the IC50 was 0.14 µM.
`Cn1nc(C(F)(F)F)cc1C1=C(C(=O)Nc2ccc(-c3ccccc3F)c(F)c2)C2CC[C@@H]1O2` [Compound 137] showed an IC50 of 8.2 µM.
For `O=C(Nc1ccc(Cl)c(Cl)c1)[C@H]1C2CC[C@H](O2)[C@H]1c1cnccn1` [Compound 140], the IC50 was greater than 33 µM.
`Cn1nc(C(F)(F)F)cc1C1=C(C(=O)Nc2ccc(Cl)c(Cl)c2)[C@H]2CC[C@@H]1O2` [Compound 141] was tested, and the IC50 was 17 µM.
In the case of `CCOC(=O)c1ccc(NC(=O)C2=C(c3cc(C(F)(F)F)nn3C)[C@@H]3CC[C@H]2O3)cc1` [Compound 142], the IC50 is reported as greater than 33 µM.
`O=C(Nc1ccc(Cl)c(Cl)c1)C1=C(c2cnccn2)[C@@H]2CC[C@H]1O2` [Compound 144] was tested, and the IC50 was greater than 33 µM.
Compound `CCOC(=O)c1ccc(NC(=O)[C@H]2[C@H](c3ccc(OC)cn3)[C@@H]3CC[C@H]2O3)cc1` [Compound 151] has an IC50 greater than 33 µM.
Work on `O=C(Nc1ccc(Cl)c(Cl)c1)[C@@H]1[C@H](c2cccc(C(F)(F)F)n2)[C@@H]2CC[C@H]1O2` [Compound 155, (1R,2R,3R,4S)—N-(3,4-dichlorophenyl)-3-(6-(trifluoromethyl)pyridin-2-yl)-7-oxabicyclo[2.2.1]heptane-2-carboxamide] yielded an IC50 greater than 33 µM.
`O=C(Nc1cccc(C(F)(F)F)c1F)C1=C(c2cccc(C(F)(F)F)n2)C2CCC1O2` (stereo not drawn) [Compound 157] was tested, and the IC50 was 25 µM.
In the case of `O=C(Nc1ccc(-c2ccccc2)c(Cl)c1)C1=C(c2cccc(C(F)(F)F)n2)[C@@H]2CC[C@H]1O2` [Compound 160, (1R,4S)—N-(2-chloro-[1,1′-biphenyl]-4-yl)-3-(6-(trifluoromethyl)pyridin-2-yl)-7-oxabicyclo[2.2.1]hept-2-ene-2-carboxamide], the IC50 is reported as 5.4 µM.
In the case of `O=C(Nc1ccc(Cl)c(Cl)c1)[C@H]1[C@H](c2ccncc2)[C@@H]2CC[C@H]1O2` [Compound 162], the IC50 is reported as greater than 33 µM.
For `O=C(Nc1ccc(-c2ccccc2F)c(F)c1)C1=C(c2cnccn2)[C@@H]2CC[C@H]1O2` [Compound 164], the IC50 was greater than 33 µM.
Compound `Cc1ccnc([C@H]2[C@@H](C(=O)Nc3ccc(-c4ccccc4F)c(F)c3)[C@H]3CC[C@@H]2O3)c1` [Compound 166] has an IC50 greater than 33 µM.
`O=C(Nc1ccc(-c2ccccc2F)c(F)c1)C1=C(c2ccnc(N3CC[C@H](O)C3)c2)[C@@H]2CC[C@H]1O2` [Compound 167] showed an IC50 greater than 33 µM.
